Source: patent US8901309B2, “Fused triazoles for the treatment or prophylaxis of mild cognitive impairment” (Takeda Pharmaceutical Company Limited, priority 2010, dated 2014)

Tested on: Aβ42 in hippocampi of C57BL/6J mice
Test: Hippocampal soluble Aβ42 ELISA in mice after oral administration
Assay type: in vivo, mouse
Details: 10 mg/kg orally, hippocampi isolated 3 hours after administration, soluble Aβ42 by ELISA; for inhibition in vivo at 10 mg/kg: Mus musculus, po, 3 h, read-out: Aβ42 production inhibitory activity (% inhibition); for Aβ42 production inhibitory activity (% inhibition): 10 mg/kg
Description: Measurement of Amyloid β Production Inhibition Rate Using Primary Nerve Cell
C57BL/6J mice (7-10 weeks old) were purchased from CLEA Japan Inc. Mice were housed in groups and kept on a 12h-light; 12h-dark schedule. All mice were given ad libitum access to food and water.
Each test compound was reconstituted in solubilization buffer ([DMSO (Wako)]: [10% Cremophor (Nakarai)+30% polyethylene glycol 400 (Wako)+60% 2 mol/L Citrate buffer (Wako)]=1:9) and orally administrated at 10 mg/kg.
Hippocampi was isolated from animals, 3 hours after test compounds were orally administrated. Hippocampi were homogenized in ice-cold Tris-extraction buffer (50 mmol/L Tris-HCl, pH 7.2, 200 mmol/L sodium chloride, 2% protease-free bovine serum albumin, and 0.01% sodium merthiolate) containing protease inhibitor cocktails (Roche, Switzerland). After centrifugation at 15,000 rpm for 15 minutes, the supernatants were subjected to two-site sandwich ELISA to measure amount of soluble Aβ. Aβ42 was quantitated by two-site sandwich ELISA using BNT77, which recognizes Aβ11-28, as a capture antibody and BC05-HRP as a detector antibody, respectively.

Compound	inhibition in vivo at 10 mg/kg	Aβ42 production inhibitory activity (% inhibition)
COc1nc(-c2nnc3n2CCCC3(Oc2ccc(Cl)c(F)c2)C(C)(C)O)ccc1-n1cnc(C)c1 (stereo not drawn) [Example 1, 2-{8-(4-chloro-3-fluorophenoxy)-3-[6-methoxy-5-(4-methyl-1H-imidazol-1-yl)pyridin-2-yl]-5,6,7,8-tetrahydro[1,2,4]triazolo[4,3-a]pyridin-8-yl}propan-2-ol]	40%	
COc1nc(-c2nnc3n2CCCC3(Oc2ccc(F)c(C(F)(F)F)c2)C(C)(C)O)ccc1-n1cnc(C)c1 (stereo not drawn) [Example 2, 2-{8-[4-fluoro-3-(trifluoromethyl)phenoxy]-3-[6-methoxy-5-(4-methyl-1H-imidazol-1-yl)pyridin-2-yl]-5,6,7,8-tetrahydro[1,2,4]triazolo[4,3-a]pyridin-8-yl}propan-2-ol]		48 % inhibition
COc1cc(-c2nnc3n2CCCC3(CC2CC2)c2ccc(F)c(F)c2)ccc1-c1cnc(C)o1 (stereo not drawn) [Example 21, optically active 8-(cyclopropylmethyl)-8-(3,4-difluorophenyl)-3-[3-methoxy-4-(2-methyl-1,3-oxazol-5-yl)phenyl]-5,6,7,8-tetrahydro[1,2,4]triazolo[4,3-a]pyridine]	39%	
COc1cc(-c2nnc3n2CCCC3(Oc2ccc(F)c(F)c2)C(C)(C)O)ccc1-c1cnc(C)o1 (stereo not drawn) [Example 92, 2-{8-(3,4-difluorophenoxy)-3-[3-methoxy-4-(2-methyl-1,3-oxazol-5-yl)phenyl]-5,6,7,8-tetrahydro[1,2,4]triazolo[4,3-a]pyridin-8-yl}propan-2-ol]		32 % inhibition
COc1cc(-c2nnc3n2CCCC3(Oc2cc(F)c(F)c(F)c2)C(C)(C)O)ccc1-c1cnc(C)o1 (stereo not drawn) [Example 99, 2-{3-[3-methoxy-4-(2-methyl-1,3-oxazol-5-yl)phenyl]-8-(3,4,5-trifluorophenoxy)-5,6,7,8-tetrahydro[1,2,4]triazolo[4,3-a]pyridin-8-yl}propan-2-ol]	34%	
COc1cc(-c2nnc3n2CCCC3(Oc2cccc(C(F)(F)F)c2)C(C)(C)O)ccc1-c1cnc(C)o1 (stereo not drawn) [Example 103, 2-{3-[3-methoxy-4-(2-methyl-1,3-oxazol-5-yl)phenyl]-8-[3-(trifluoromethyl)phenoxy]-5,6,7,8-tetrahydro[1,2,4]triazolo[4,3-a]pyridin-8-yl}propan-2-ol]	42%	
COc1cc(-c2nnc3n2CCCC3(Oc2ccc(C(F)(F)F)cc2)C(C)(C)O)ccc1-c1cnc(C)o1 (stereo not drawn) [Example 104, 2-{3-[3-methoxy-4-(2-methyl-1,3-oxazol-5-yl)phenyl]-8-[4-(trifluoromethyl)phenoxy]-5,6,7,8-tetrahydro[1,2,4]triazolo[4,3-a]pyridin-8-yl}propan-2-ol]		36 % inhibition
COc1cc(-c2nnc3n2CCCC3(Oc2ccc(Cl)c(F)c2)C(C)(C)O)ccc1-c1cnc(C)o1 (stereo not drawn) [Example 111, 2-{8-(4-chloro-3-fluorophenoxy)-3-[3-methoxy-4-(2-methyl-1,3-oxazol-5-yl)phenyl]-5,6,7,8-tetrahydro[1,2,4]triazolo[4,3-a]pyridin-8-yl}propan-2-ol]	46%	
CCC(O)(CC)C1(Oc2ccc(Cl)c(F)c2)CCCn2c(-c3ccc(-c4cnc(C)o4)c(OC)c3)nnc21 (stereo not drawn) [Example 120, 3-{8-(4-chloro-3-fluorophenoxy)-3-[3-methoxy-4-(2-methyl-1,3-oxazol-5-yl)phenyl]-5,6,7,8-tetrahydro[1,2,4]triazolo[4,3-a]pyridin-8-yl}pentan-3-ol]	21%	
COc1cc(-c2nnc3n2CCC[C@]3(Oc2cc(F)c(F)c(F)c2)C(C)(C)O)ccc1-c1cnc(C)o1 [Example 122, 2-{(8R)-3-[3-methoxy-4-(2-methyl-1,3-oxazol-5-yl)phenyl]-8-(3,4,5-trifluorophenoxy)-5,6,7,8-tetrahydro[1,2,4]triazolo[4,3-a]pyridin-8-yl}propan-2-ol]	54%	
COc1cc(-c2nnc3n2CCCC3(Oc2ccc(F)c(F)c2)C(C)(C)O)ccc1-c1cnc(C)o1 (stereo not drawn) [Example 124, 2-{8-(3,4-difluorophenoxy)-3-[3-methoxy-4-(2-methyl-1,3-oxazol-5-yl)phenyl]-5,6,7,8-tetrahydro[1,2,4]triazolo[4,3-a]pyridin-8-yl}propan-2-ol]	41%	
COc1cc(-c2nnc3n2CCCC3(COc2ccc(Cl)cc2)C(C)(C)O)ccc1-c1cnc(C)o1 (stereo not drawn) [Example 127, 2-{8-[(4-chlorophenoxy)methyl]-3-[3-methoxy-4-(2-methyl-1,3-oxazol-5-yl)phenyl]-5,6,7,8-tetrahydro[1,2,4]triazolo[4,3-a]pyridin-8-yl}propan-2-ol]	21%	
COc1cc(-c2nnc3n2CCCC3(Oc2cccc(C(F)(F)F)c2)C(C)(C)O)ccc1-c1cnc(C)o1 (stereo not drawn) [Example 130, 2-{3-[3-methoxy-4-(2-methyl-1,3-oxazol-5-yl)phenyl]-8-[3-(trifluoromethyl)phenoxy]-5,6,7,8-tetrahydro[1,2,4]triazolo[4,3-a]pyridin-8-yl}propan-2-ol]		59 % inhibition
COc1cc(-c2nnc3n2CCCC3(Oc2ccc(C(F)(F)F)cc2)C(C)(C)O)ccc1-c1cnc(C)o1 (stereo not drawn) [Example 132, 2-{3-[3-methoxy-4-(2-methyl-1,3-oxazol-5-yl)phenyl]-8-[4-(trifluoromethyl)phenoxy]-5,6,7,8-tetrahydro[1,2,4]triazolo[4,3-a]pyridin-8-yl}propan-2-ol]		58 % inhibition
COc1nc(-c2nnc3n2CCCC3(Oc2cc(F)c(F)c(F)c2)C(C)(C)O)ccc1-n1cnc(C)c1 (stereo not drawn) [Example 134, 2-{3-[6-methoxy-5-(4-methyl-1H-imidazol-1-yl)pyridin-2-yl]-8-(3,4,5-trifluorophenoxy)-5,6,7,8-tetrahydro[1,2,4]triazolo[4,3-a]pyridin-8-yl}propan-2-ol]	31%	
COc1cc(-c2nnc3n2CCCC3(Oc2ccc(Cl)c(C(F)(F)F)c2)C(C)(C)O)ccc1-n1cnc(C)n1 (stereo not drawn) [Example 139, 2-{8-[4-chloro-3-(trifluoromethyl)phenoxy]-3-[3-methoxy-4-(3-methyl-1H-1,2,4-triazol-1-yl)phenyl]-5,6,7,8-tetrahydro[1,2,4]triazolo[4,3-a]pyridin-8-yl}propan-2-ol]	22%	
COc1cc(-c2nnc3n2CCCC3(Oc2cc(F)cc(F)c2)C(C)(C)O)ccc1-c1cnc(C)o1 (stereo not drawn) [Example 141, 2-{8-(3,5-difluorophenoxy)-3-[3-methoxy-4-(2-methyl-1,3-oxazol-5-yl)phenyl]-5,6,7,8-tetrahydro[1,2,4]triazolo[4,3-a]pyridin-8-yl}propan-2-ol]	46%	
COc1cc(-c2nnc3n2CCCC3(Oc2cc(F)c(F)c(F)c2)C(C)(C)O)ccc1-c1cnn(C)c1 (stereo not drawn) [Example 144, 2-{3-[3-methoxy-4-(1-methyl-1H-pyrazol-4-yl)phenyl]-8-(3,4,5-trifluorophenoxy)-5,6,7,8-tetrahydro[1,2,4]triazolo[4,3-a]pyridin-8-yl}propan-2-ol]	31%	
COc1nc(-c2nnc3n2CCC[C@]3(Oc2cc(F)c(F)c(F)c2)C(C)(C)O)ccc1-n1cnc(C)c1 [Example 152, 2-{(8R)-3-[6-methoxy-5-(4-methyl-1H-imidazol-1-yl)pyridin-2-yl]-8-(3,4,5-trifluorophenoxy)-5,6,7,8-tetrahydro[1,2,4]triazolo[4,3-a]pyridin-8-yl}propan-2-ol]	57%	
COc1cc(-c2nnc3n2CCCC3(Oc2cc(F)cc(F)c2)C(C)(C)O)ccc1-c1cnc(C)o1 (stereo not drawn) [Example 155, 2-{8-(3,5-difluorophenoxy)-3-[3-methoxy-4-(2-methyl-1,3-oxazol-5-yl)phenyl]-5,6,7,8-tetrahydro[1,2,4]triazolo[4,3-a]pyridin-8-yl}propan-2-ol]		56 % inhibition
COc1nc(-c2nnc3n2CCCC3(Oc2ccc(F)c(C(F)(F)F)c2)C(C)(C)O)ccc1-n1cnc(C)c1 (stereo not drawn) [Example 157, 2-{8-[4-fluoro-3-(trifluoromethyl)phenoxy]-3-[6-methoxy-5-(4-methyl-1H-imidazol-1-yl)pyridin-2-yl]-5,6,7,8-tetrahydro[1,2,4]triazolo[4,3-a]pyridin-8-yl}propan-2-ol]	61%	
COc1cc(-c2nnc3n2CCCC3(Oc2cc(F)c(F)c(F)c2)C(C)(C)O)c(F)cc1-c1cnc(C)o1 (stereo not drawn) [Example 162, 2-{3-[2-fluoro-5-methoxy-4-(2-methyl-1,3-oxazol-5-yl)phenyl]-8-(3,4,5-trifluorophenoxy)-5,6,7,8-tetrahydro[1,2,4]triazolo[4,3-a]pyridin-8-yl}propan-2-ol]	26%	
COc1nc(-c2nnc3n2CCCC3(Oc2cc(F)c(F)c(F)c2)C(C)(C)O)ccc1-c1cnc(C)o1 (stereo not drawn) [Example 172, 2-{3-[6-methoxy-5-(2-methyl-1,3-oxazol-5-yl)pyridin-2-yl]-8-(3,4,5-trifluorophenoxy)-5,6,7,8-tetrahydro[1,2,4]triazolo[4,3-a]pyridin-8-yl}propan-2-ol]	35%	
COc1cc(-c2nnn3c2CCCC3(Oc2cc(F)c(F)c(F)c2)C(C)(C)O)ccc1-c1cnc(C)o1 (stereo not drawn) [Example 186, 2-{3-[3-methoxy-4-(2-methyl-1,3-oxazol-5-yl)phenyl]-7-(3,4,5-trifluorophenoxy)-4,5,6,7-tetrahydro[1,2,3]triazolo[1,5-a]pyridin-7-yl}propan-2-ol]	22%	
